Data set [1] has as its system PSN1 xenografts. In words: Dynamic PET/CT imaging of [18F]rucaparib in PSN1 tumour-bearing mice. The data set is classed as in vivo, Balb/c nu/nu mice. As to the method:
Female Balb/c nu/nu (OlaHsd-Foxn1^nu) mice, aged 4–6 weeks, were purchased from Envigo (UK). Animals were housed in IVC cages, up to 6 per cage, in an artificial day–night cycle facility. Food and water were provided ad libitum. PSN1 cells were harvested using trypsin, washed twice with PBS and reconstituted in PBS:Matrigel® Matrix High Concentration (1:1). Cell suspensions (PSN1: 2 × 10^6 cells/ 100 μL) were injected subcutaneously in the lower right flank. […] Animal was anesthetised by 4% isoflurane gas (0.5 L/min O2) and maintained at 2.5% at 37 °C throughout the duration of image acquisition. PET images were reconstructed using U-SPECT-Rec3.22 software (MILabs, Utrecht, The Netherlands), applying a pixel-based algorithm, ordered subset expectation maximisation (OSEM) with 6 subsets, 4 iterations and 0.8 mm voxel size for fluorine-18 (energy window settings 477.9–584.1 keV). Reconstructed PET and CT images were viewed and analysed using PMOD v.3.37 (PMOD Technologies, Zurich, Switzerland).

The test system of data set [2] is PSN1 cells. Briefly: Cell retention of [18F]rucaparib and [18F]olaparib in PSN1 cells. The format is cell-based, human. The method, then: (§1) AsPC1 (1 × 10^5 cells/well) and PSN1 cells (7.5 × 10^4 cells/well) were exposed to [^18F]rucaparib (100 kBq, 4.8 GBq/μmol; [^TotalF]rucaparib final concentration: 258 nM) or [^18F]olaparib (400 kBq, 2.8 GBq/μmol: [^TotalF]olaparib final concentration: 242 nM) in 24-well plates at 37 °C for 30 min. Cell culture medium was removed, and cells were washed with PBS, followed by the addition of fresh medium (300 μL). Cells were then further incubated at 37 °C. Cell culture medium was removed, and cells were washed with PBS at different times (0–3 h). Cells were lysed using RIPA buffer for 15 min at room temperature, and the amount of ^18F in the cell lysates was measured as above.

The subject of data set [3] is AsPC1 cells. In words: Cell retention of [18F]rucaparib and [18F]olaparib in AsPC1 cells. The format is cell-based, human. As to the method:
as §1

Data set [4] has as its system PSN1 cells. In words: In vitro uptake and binding selectivity of [18F]rucaparib in PSN1 cells. The format is cell-based, human. The method, then: (§2) AsPC1 (1 × 10^5 cells/well) and PSN1 cells (7.5 × 10^4 cells/well) were seeded separately in 24-well plates (in 300 μL growth medium) and allowed to adhere for at least 20 h. […] To assess [^18F]rucaparib-binding selectivity, unlabelled PARP inhibitors, IMPDH2 or ALDH2 inhibitor, were added (100 μM, in 270 μL growth medium) for 45 min at 37 °C before addition of [^18F]rucaparib (156 kBq, 6.8 GBq/μmol; [^TotalF]rucaparib final concentration: 100 nM), and the cells were incubated at 37 °C for a further 45 min. Cell culture medium was removed, and cells were washed with PBS. Cells were lysed using RIPA buffer for 15 min at room temperature, and the amount of ^18F in the cell lysates was measured using an automated gamma counter (PerkinElmer), normalising for the number of cells.
(§3) Cells were lysed and the amount of ^18F in the cell lysates was measured as above.

Data set [5] deals with PSN1 xenografts. Briefly: Ex vivo biodistribution of [18F]rucaparib in PSN1 tumour-bearing mice. More on the design: species or system Balb/c nu/nu mice. The settings on record: for Ex vivo biodistribution, Blood / Ex vivo biodistribution, Bone / Ex vivo biodistribution, Fat / Ex vivo biodistribution, Heart / Ex vivo biodistribution, Kidney / Ex vivo biodistribution, Large intestine / Ex vivo biodistribution, Lung / Ex vivo biodistribution, Muscle / Ex vivo biodistribution, Pancreas / Ex vivo biodistribution, Small intestine / Ex vivo biodistribution, Tumour: i.v.; for Tumour uptake / Tumour-to-blood (T/B) ratio: PSN1 xenografts; for Tumour uptake: mean ± SD. The method, then: Female Balb/c nu/nu (OlaHsd-Foxn1^nu) mice, aged 4–6 weeks, were purchased from Envigo (UK). Animals were housed in IVC cages, up to 6 per cage, in an artificial day–night cycle facility. Food and water were provided ad libitum.
PSN1 cells were harvested using trypsin, washed twice with PBS and reconstituted in PBS:Matrigel® Matrix High Concentration (1:1). Cell suspensions (PSN1: 2 × 10^6 cells/ 100 μL) were injected subcutaneously in the lower right flank.
Animals were administered [^18F]rucaparib (0.87–11.38 MBq in 100 μL of PBS, Am = 1.5–30.9 GBq/μmol) by intravenous injection via the lateral tail vein. To evaluate the selectivity of tumour uptake, an excess of unlabelled rucaparib or olaparib (0.5 mg) was co-administered as a blocking agent in some animals. Dynamic PET images (1 h) were acquired using a MILabs VECTor^4 camera, equipped with an ultra-high resolution rat/mouse collimator (1.8 mm), followed by a cone-beam CT scan (55 kV, 0.19 mA) for anatomical reference and attenuation correction. Animal was anesthetised by 4% isoflurane gas (0.5 L/min O2) and maintained at 2.5% at 37 °C throughout the duration of image acquisition. PET images were reconstructed using U-SPECT-Rec3.22 software (MILabs, Utrecht, The Netherlands), applying a pixel-based algorithm, ordered subset expectation maximisation (OSEM) with 6 subsets, 4 iterations and 0.8 mm voxel size for fluorine-18 (energy window settings 477.9–584.1 keV). Reconstructed PET and CT images were viewed and analysed using PMOD v.3.37 (PMOD Technologies, Zurich, Switzerland).
Either 1 h or 2 h after radiolabelled compound injection, animals were euthanised. Selected organs, tissues and blood were removed, and the percentage of the injected dose per gram of tissue (%ID/g) was determined, using a HIDEX automated gamma counter.

In data set [6] the test system is AsPC1 cells. Briefly: In vitro uptake and binding selectivity of [18F]rucaparib in AsPC1 cells. The format is cell-based, human. As to the method:
as §2, §3

The mark [7] stands for this setting: PSN1 tumour-bearing mice, i.v., n=3.
Where [8] appears, read: PSN1 tumour-bearing mice, i.v., n=3, biphasic.
Where [9] appears, read: 1 h post-injection, individual animals (n=3).
Where [10] appears, read: 2 h post-injection, individual animals (n=6).

Several values for one entry are separate records, joined by “and”; a condition that tells them apart may be missing. Equal values may be shown once.

`CNCc1ccc(-c2[nH]c3cc([18F])cc4c3c2CCNC4=O)cc1` [[^18F]rucaparib]: the Elimination pathways entry with PSN1 xenografts [1] (PSN1 tumour-bearing mice, dynamic imaging and biodistribution) was “hepatobiliary and renal”. The “Half-life for liver elimination” value with PSN1 xenografts [1] (PSN1 tumour-bearing mice, i.v.) is 31 ± 19 min. The Weighted blood half-life in the data set with PSN1 xenografts [1] (PSN1 tumour-bearing mice, i.v., 8.9 μg or 27.5 nmol/kg) is listed as 4.3 ± 0.62 min. Moreover, in the data set with PSN1 xenografts [1] (setting [7]), the “Blood clearance, fraction of fast phase” value stood at 54 ± 10% and the “Blood clearance, fraction of slow phase” value came to 46 ± 10%. Moreover, in the data set with PSN1 xenografts [1] (setting [8]), the “Blood clearance, fast half-life” value was determined as 1.7 ± 0.44 min and the “Blood clearance, slow half-life” value worked out at 16 ± 10 min. Besides, in the data set on PSN1 xenografts [1] (PSN1 xenografts, 50 min post-injection), the “Tumour-to-muscle (T/M) ratio from PET/CT images” value is listed as 2.3 ± 1.1. For the same compound, in the data set with PSN1 xenografts [1] (PSN1 xenografts, dynamic PET), the “Time of tumour uptake (VOI analysis)” value is recorded as no more than 10 min. Also, the “Time of uptake in kidney and bladder” value in the data set with PSN1 xenografts [1] (dynamic PET, indicates fast renal clearance) is on record as no more than 5 min. Moreover, the “Uptake and retention compared with [TotalF]olaparib” value in the data set with PSN1 cells [2] amounted to 100 fold. The “Uptake and retention compared with [TotalF]olaparib” value in the data set on AsPC1 cells [3] turned out to be 100 fold. In the data set with PSN1 cells [4] (PSN1 cells, [TotalF]rucaparib 258 nM, 37 °C, Fig. 1B), the “Cellular uptake (time)” value was less than 1 min. For the same compound, the “Cell association of [18F]rucaparib” value with PSN1 cells [4] (PSN1 versus AsPC1 cells, 64 nM and 258 nM, 37 °C, 30 min) was “higher in PSN1 cells than in AsPC1 cells”. Moreover, in the data set with PSN1 xenografts [5] (setting [9]), the “Ex vivo biodistribution, Blood” value was 3.51 %ID/g and 3.67 %ID/g and 3.59 %ID/g; the “Ex vivo biodistribution, Bone” value is 4.90 %ID/g and 6.79 %ID/g and 5.26 %ID/g; the “Ex vivo biodistribution, Fat” value was 6.53 %ID/g and 4.98 %ID/g and 6.82 %ID/g; the “Ex vivo biodistribution, Heart” value is 13.27 %ID/g and 16.24 %ID/g and 17.47 %ID/g. Further, in the data set on PSN1 xenografts [5] (setting [9]), the “Ex vivo biodistribution, Kidney” value was 17.24 %ID/g and 30.17 %ID/g and 36.00 %ID/g; the “Ex vivo biodistribution, Large intestine” value is 12.50 %ID/g and 16.33 %ID/g and 14.08 %ID/g; the “Ex vivo biodistribution, Lung” value was 17.76 %ID/g and 25.71 %ID/g and 27.51 %ID/g; the “Ex vivo biodistribution, Muscle” value was 2.63 %ID/g and 4.25 %ID/g and 3.13 %ID/g. Also, in the data set with PSN1 xenografts [5] (setting [9]), the “Ex vivo biodistribution, Pancreas” value was 19.47 %ID/g and 23.54 %ID/g and 23.22 %ID/g; the “Ex vivo biodistribution, Small intestine” value is 33.79 %ID/g and 46.24 %ID/g; the “Ex vivo biodistribution, Tumour” value is 5.25 %ID/g and 6.05 %ID/g and 5.16 %ID/g. In addition, in the data set on PSN1 xenografts [5] (setting [10]), the “Ex vivo biodistribution, Blood” value was 0.92 %ID/g and 0.49 %ID/g and 0.48 %ID/g and 1.57 %ID/g and 0.51 %ID/g and 0.44 %ID/g; the “Ex vivo biodistribution, Bone” value was 3.49 %ID/g and 2.71 %ID/g and 2.38 %ID/g and 3.10 %ID/g and 2.18 %ID/g and 2.26 %ID/g; the “Ex vivo biodistribution, Fat” value was 1.32 %ID/g and 0.74 %ID/g and 0.84 %ID/g and 1.78 %ID/g and 1.03 %ID/g and 0.86 %ID/g; the “Ex vivo biodistribution, Heart” value is 2.44 %ID/g and 2.15 %ID/g and 1.73 %ID/g (2×) and 1.61 %ID/g and 1.27 %ID/g. In the data set with PSN1 xenografts [5] (setting [10]), the “Ex vivo biodistribution, Kidney” value was 7.28 %ID/g and 6.56 %ID/g and 5.54 %ID/g and 7.41 %ID/g and 4.70 %ID/g and 4.13 %ID/g; the “Ex vivo biodistribution, Large intestine” value was 23.81 %ID/g and 19.26 %ID/g and 15.83 %ID/g and 25.44 %ID/g and 36.97 %ID/g and 43.06 %ID/g; the “Ex vivo biodistribution, Lung” value is 8.77 %ID/g and 6.24 %ID/g and 4.58 %ID/g and 9.27 %ID/g and 5.27 %ID/g; the “Ex vivo biodistribution, Muscle” value was 2.51 %ID/g and 1.58 %ID/g and 1.90 %ID/g and 2.77 %ID/g and 1.57 %ID/g (2×). In the data set with PSN1 xenografts [5] (setting [10]), the “Ex vivo biodistribution, Pancreas” value was 13.99 %ID/g and 9.45 %ID/g and 9.78 %ID/g and 11.07 %ID/g and 9.35 %ID/g and 7.70 %ID/g; the “Ex vivo biodistribution, Small intestine” value was 16.44 %ID/g and 9.50 %ID/g and 19.42 %ID/g and 22.39 %ID/g and 10.51 %ID/g and 13.44 %ID/g; the “Ex vivo biodistribution, Tumour” value is 2.58 %ID/g and 2.10 %ID/g and 1.74 %ID/g and 2.60 %ID/g and 3.45 %ID/g and 2.99 %ID/g. Also, the Tumour uptake in the data set on PSN1 xenografts [5] (1 h after i.v. administration) was 5.5 ± 0.5 %ID/g and 5.49 ± 0.49 %ID/g. Moreover, the “Tumour-to-blood (T/B) ratio” value with PSN1 xenografts [5] (1 h post-administration) is reported as 1.53 ± 0.11. For the same compound, in the data set on PSN1 xenografts [5] (2 h post-administration), the “Tumour-to-blood (T/B) ratio” value stood at 4.33 ± 2.1 and the Tumour uptake stood at 2.2 ± 0.34 %ID/g. Also, the “Cellular uptake (time)” value in the data set on AsPC1 cells [6] ([TotalF]rucaparib 258 nM, 37 °C, Fig. 1B) is on record as less than 1 min.

As for `O=c1c(-c2ccc(O)cc2)coc2cc(O[C@@H]3O[C@H](CO)[C@@H](O)[C@H](O)[C@H]3O)ccc12` [daidzin, reference compound], the “Blocking of [18F]rucaparib uptake” value in the data set with PSN1 cells [4] (PSN1 cells, unlabelled inhibitor 100 μM for 45 min before [18F]rucaparib (100 nM), further 45 min) is listed as “significantly reduce”; with AsPC1 cells [6] (unlabelled inhibitor 100 μM for 45 min before [18F]rucaparib (100 nM), further 45 min) it was “significantly reduce”.

The values above are taken from PMC9399069, “Imaging PARP with [^18F]rucaparib in pancreatic cancer models” (European Journal of Nuclear Medicine and Molecular Imaging, 2022).
